{
  "source": "paper PMC2397535",
  "about": "(Breast Cancer Research : BCR, 2008)",
  "key": {"[1]": {"test": "pharmacokinetics and biodistribution in BT-474 tumor-bearing mice (HPLC/MS-MS)", "format": "in vivo", "settings": "for Kp: intravenous; for Kp / half-life: 30 mg/kg", "experimental": "At various time points, mice (n = 4) were sacrificed and blood and tissues (tumor, liver, lung, heart, and muscles) were dissected. […] Frozen tissues were minced, then homogenized in an equal volume of ice-cold phosphate-buffered saline (Sigma P4417; Sigma-Aldrich) using a Polytron homogenizer (TP18-10; IKA, Staufen, Germany) and keeping the material cold during the homogenization. After the addition of 50 μL of internal standard (1 μg/mL) to analytical aliquots (25 to 250 μL) of plasma or tissue homogenate, the proteins were precipitated by the addition of an equal volume of acetonitrile and processed further for chromatographic separation. […] An aliquot (5 μL) of this solution was separated on a […] Ultra Cyano reverse-phase HPLC column (column size 50 × 1 mm, particle size 3 μm, preceded by a guard column: PhenomenexTM AJO-4304 Phenylpropyl, size 4 × 2 mm (Phenomenex, Torrance, CA, USA)) with a mobile phase consisting of a mixture of 0.2% formic acid in water (solvent A) and 0.2% formic acid in acetonitrile (solvent B). The column eluent was introduced directly into the ion source of the triple-quadrupole mass spectrometer Quattro UltimaTM (Micromass Limited, now part of Waters Corporation, Milford, MA, USA) controlled by MasslynxTM 4.0 software. Positive electrospray ionization multiple-reaction monitoring was used for the MS/MS detection of the analyte. Precursors to product ion transitions of m/z 466.[…]/z 308.20 for NVP-AUY922-NX and m/z 480.[…]/z 308.15 for IS VER814 were used. […] Regression analysis and further calculations were performed using QuanLynxTM 4.0 (Waters Corporation, Milford, MA, USA) and ExcelTM 2002 (Microsoft Corporation, Redmond, WA, USA). Concentrations of unknown samples were calculated from the peak area ratio of the product ion of the analytes to the product ion of its internal standard (ordinate) against the nominal concentration (abscissa). Assay linearity was indicated by an overall regression coefficient of 0.9975."}, "[2]": {"tested_on": "BT-474", "test": "antiproliferative effect (GI50), breast cancer cell line", "format": "cell-based", "settings": "Homo sapiens"}, "[3]": {"tested_on": "HSP70", "test": "HSP70 induction in BT-474 xenografts (immunohistochemistry)", "format": "in vivo, mice", "settings": "single 50 mg/kg dose", "experimental": "Formalin-fixed paraffin-embedded tissue sections were stained using the Ventana Discovery System (Ventana Medical Systems, Inc., Tucson, AZ, USA). Deparaffinization of tissue sections and heat-induced epitope retrieval using Standard Cell Conditioning Solution 1 (Ventana Medical Systems, Inc.) were performed directly on the System. A rabbit anti-human ERBB2 (HER2) monoclonal antibody (Lab Vision Corporation, Fremont, CA, USA) and a mouse anti-human HSP70 (Assay Designs, Inc.) were prepared in Dako diluent (Dako North America, Inc., Carpinteria, CA, USA) and used at concentrations of 2 ug/mL for 32 minutes and 10 ug/mL for 60 minutes, respectively. For HSP70 staining, slides were incubated with a biotin-labeled anti-mouse IgG1 (Research Diagnostics, Inc., now known as Fitzgerald Industries International, Concord, MA, USA) at a concentration of 1.25 ug/mL diluted in M.O.M. (Mouse-on-Mouse) (Vector Laboratories, Peterborough, UK). Detection using a 3,3'-diaminobenzadine reaction was performed on the section by using the Ventana OmniMAP DAB for the ERBB2 antibody and the Ventana DAB Map reagent for the HSP70 antibody (Ventana Medical Systems, Inc.). Each tissue section was subsequently counterstained with hematoxylin. To ensure antibody specificity, consecutive tissue sections were incubated with normal isotype-matched immunoglobulins (rabbit IgG; Jackson ImmunoResearch Laboratories, Inc., West Grove, PA, USA, and mouse IgG1; Lab Vision Corporation) used at concentrations equivalent to Her2 and HSP70 antibodies. Stained tissue sections were quantified using the Aperio Digital Pathology System (Aperio Technologies, Inc., Vista, CA, USA).\nInvasive procedures were performed under Forene anesthesia. […] The animals were fed food and water ad libitum."}, "[4]": {"settings": "48 hours after compound administration"}},
  "note": "Where two headings read alike, the source gives them in different places.",
  "data": [
    {"smiles": "CCNC(=O)c1noc(-c2cc(C(C)C)c(O)cc2O)c1-c1ccc(CN2CCOCC2)cc1", "note": "[NVP-AUY922]", "values": [
      {"measurement": "plasma concentrations", "setting": "[1]; [4]", "result": "below levels of quantitation"},
      {"measurement": "tumor concentration", "setting": "[1]; [4]", "result": 2.22, "unit": "nmol/g"},
      {"measurement": "Kp", "setting": "[1]; female, athymic, mouse, heart, read-out: tissue exposure over 48 hours relative to plasma", "result": 5},
      {"measurement": "half-life", "setting": "[1]; female, athymic, mouse, heart, iv, heart, 30 mg/kg single i.v., read-out: T 1/2 elimination λ_z (converted)", "result": 5.6, "unit": "h"},
      {"measurement": "AUC(0-t)", "setting": "[1]; female, athymic, mouse, iv, plasma, 30 mg/kg single i.v., read-out: AUC(0-8)", "result": 7.3, "unit": "µM·h"},
      {"measurement": "Cmax", "setting": "[1]; female, athymic, mouse, iv, plasma, 30 mg/kg single i.v., read-out: Cmax", "result": "14.1 ± 4.14", "unit": "µM"},
      {"measurement": "Kp", "setting": "[1]; female, athymic, mouse, liver, read-out: tissue exposure over 48 hours relative to plasma", "result": 7},
      {"measurement": "half-life", "setting": "[1]; female, athymic, mouse, liver, iv, liver, 30 mg/kg single i.v., read-out: T 1/2 elimination λ_z (converted)", "result": 7.7, "unit": "h"},
      {"measurement": "half-life", "setting": "[1]; female, athymic, mouse, liver, lung, heart, muscle, iv, liver, lung, heart, muscle, read-out: terminal elimination half-life from non-tumor tissues", "result": "5.5 to 8", "unit": "h"},
      {"measurement": "Kp", "setting": "[1]; female, athymic, mouse, lung, read-out: tissue exposure over 48 hours relative to plasma", "result": 10},
      {"measurement": "half-life", "setting": "[1]; female, athymic, mouse, lung, iv, lung, 30 mg/kg single i.v., read-out: T 1/2 elimination λ_z (converted)", "result": 5.5, "unit": "h"},
      {"measurement": "Kp", "setting": "[1]; female, athymic, mouse, muscle, read-out: tissue exposure over 48 hours relative to plasma", "result": 5},
      {"measurement": "half-life", "setting": "[1]; female, athymic, mouse, muscle, iv, muscle, 30 mg/kg single i.v., read-out: T 1/2 elimination λ_z (converted)", "result": 8, "unit": "h"},
      {"measurement": "half-life", "setting": "[1]; female, athymic, mouse, plasma, iv, based on the last three time points, read-out: apparent terminal elimination half-life in plasma (converted)", "result": 10, "unit": "h"},
      {"measurement": "half-life", "setting": "[1]; female, athymic, mouse, plasma, iv, plasma, 30 mg/kg single i.v., read-out: T 1/2 elimination λ_z (converted)", "result": 10.3, "unit": "h"},
      {"measurement": "Kp", "setting": "[1]; female, athymic, mouse, tumor, read-out: tumor exposure relative to plasma", "result": "~47"},
      {"measurement": "half-life", "setting": "[1]; female, athymic, mouse, tumor, iv, tumor, 30 mg/kg single i.v., read-out: T 1/2 elimination λ_z (converted)", "result": 30, "unit": "h"},
      {"measurement": "half-life", "setting": "[1]; female, athymic, mouse, tumor, iv, tumor, read-out: terminal half-life in tumor", "result": "25 to 30", "unit": "h"},
      {"measurement": "AUC(0-8)", "setting": "[1]; heart, 30 mg/kg single i.v.", "result": 32, "unit": "nmol·h/g"},
      {"measurement": "Cmax", "setting": "[1]; heart, 30 mg/kg single i.v.", "result": "36.86 ± 7.42", "unit": "nmol/g"},
      {"measurement": "dose-normalized plasma exposure", "setting": "[1]; i.v. 20 mg/kg", "result": 0.28, "unit": "µmol·h/L"},
      {"measurement": "dose-normalized plasma exposure", "setting": "[1]; i.v. 30 mg/kg", "result": 0.24, "unit": "µmol·h/L"},
      {"measurement": "AUC(0-8)", "setting": "[1]; liver, 30 mg/kg single i.v.", "result": 53, "unit": "nmol·h/g"},
      {"measurement": "Cmax", "setting": "[1]; liver, 30 mg/kg single i.v.", "result": "30.94 ± 5.58", "unit": "nmol/g"},
      {"measurement": "AUC(0-8)", "setting": "[1]; lung, 30 mg/kg single i.v.", "result": 71, "unit": "nmol·h/g"},
      {"measurement": "Cmax", "setting": "[1]; lung, 30 mg/kg single i.v.", "result": "48.48 ± 10.11", "unit": "nmol/g"},
      {"measurement": "AUC(0-8)", "setting": "[1]; muscle, 30 mg/kg single i.v.", "result": 35, "unit": "nmol·h/g"},
      {"measurement": "Cmax", "setting": "[1]; muscle, 30 mg/kg single i.v.", "result": "27.45 ± 6.64", "unit": "nmol/g"},
      {"measurement": "Cmax (highest concentration)", "setting": "[1]; tumor", "result": 16.3, "unit": "nmol/g"},
      {"measurement": "tumor drug level at 48 hours as share of Cmax", "setting": "[1]; tumor", "result": "approximately 13%"},
      {"measurement": "AUC(0-8)", "setting": "[1]; tumor, 30 mg/kg single i.v.", "result": 345, "unit": "nmol·h/g"},
      {"measurement": "Cmax", "setting": "[1]; tumor, 30 mg/kg single i.v.", "result": "16.36 ± 3.84", "unit": "nmol/g"},
      {"measurement": "GI50", "setting": "[2]", "result": "3.1 ± 1.4", "unit": "nM"},
      {"measurement": "HSP70 staining intensity, recovery", "setting": "[3]", "result": "gradually returned to baseline over one week"},
      {"measurement": "time point of peak HSP70 staining intensity", "setting": "[3]", "result": 24, "unit": "h"},
      {"measurement": "HSP70 staining intensity", "setting": "[3]; 6 hours after administration", "result": "strongly increased HSP70 staining"}
    ]}
  ]
}
